Test results taken from patent publication US20240139142A1, “METHOD FOR PREVENTING OR TREATING LIVER DISEASE” (priority 2022, published 2024).

Key:
[1] = test system: liver hepatocellular carcinoma cell line SNU-449; assay: MTS analysis, growth inhibition (GI50); type: cell-based
[2] = test system: liver hepatocellular carcinoma cell line Mahlavu; assay: MTS analysis, growth inhibition (GI50); type: cell-based; details: read-out: GI50, Mahlavu liver hepatocellular carcinoma cell line
[3] = test system: SNU-449 liver hepatocellular carcinoma cell line; assay: Western blot of apoptosis markers (cleaved caspase 8, cleaved PARP); type: cell-based; details: 0.3 μM, 0, 24, 48 and 72 hours
Method: SNU-449 liver hepatocellular carcinoma cell line was treated by 0.3 μM isothiocyanate structural modified compounds P1130 and PCH1152, and natural isothiocyanate compound PEITC, and the control group was treated by DSMO. After extracting the proteins in the cells at different time points, such as 0, 24, 48 and 72 hours, analysis and comparison were performed by using western blot. […] The results represent that the two structural modified compounds described above effectively promoted the apoptosis of the liver hepatocellular carcinoma cells (FIG. 1).

[4] = test system: Mahlavu liver hepatocellular carcinoma cell line; assay: Expression of ABCC2, Twist and Mcl-1 after treatment; type: cell-based; details: 2.5 μM, 64 hours
Excerpt: (§1) The process of trans-differentiating epithelial cells into motile mesenchymal cells is called epithelial-mesenchymal transition (EMT). EMT is indispensable in development, wound healing and stem cell behavior, and may induce fibrosis and carcinogenesis pathologically. In addition, EMT plays an important role in liver fibrosis, liver cirrhosis and liver hepatocellular carcinoma. […] Moreover, EMT may increase the anti-apoptosis effect, which will result in the development of drug resistance in cancer treatment, and induce the development of stemness of the cancer cells, as well as increase the number of cancer stem cells. The cancer stem cell is one of the important factors in the progression, recurrence, metastasis and drug resistance of the cancer. There is an evidence that in the samples of the liver hepatocellular carcinoma patients with poor prognosis, the overexpressions of Twist and Snail were observed. […] The results above represent that isothiocyanate structural modified compound of the present disclosure may prevent liver carcinogenesis and the growth, invasion, metastasis, progression and recurrence of liver hepatocellular carcinoma via inhibiting epithelial-mesenchymal transition, anti-apoptosis and/or inhibiting drug resistance.

[5] = test system: SNU-449 liver hepatocellular carcinoma cell line; assay: as above; type: cell-based; details: 2.5 μM, 64 hours
Excerpt: as §1

[6] = test system: liver hepatocellular carcinoma cell line SNU-449; assay: MTS assay cell growth, selectivity test; type: cell-based
[7] = test system: human normal liver cell line THLE-2; assay: MTS assay cell growth, selectivity test; type: cell-based
Excerpt: Preferable small molecule anticancer drugs must have higher selectivity to cancer cells, thereby reducing the toxicity and side effects in the normal cells and the dosage being taken. The selectivity of isothiocyanate structural modified compound of the present disclosure to liver hepatocellular carcinoma cells was examined by using human normal liver cell line THLE-2 and liver hepatocellular carcinoma cell line SNU-449. After treating liver hepatocellular carcinoma cell line and normal liver cell line by isothiocyanate structural modified compounds P1130 or PCH1152, the cell growth was evaluated by MTS assay.

[8] = test system: SNU-449 liver hepatocellular carcinoma cell line; assay: Western blot, apoptosis and ABCC2/Mcl-1/Twist expression; type: cell-based; details: low concentration
[9] = test system: human normal liver cell line THLE-2; assay: as above; type: cell-based; details: low concentration
[10] = test system: Mahlavu liver hepatocellular carcinoma cell line subcutaneous tumor; assay: Mouse xenograft model, oral PCH1152; type: in vivo, nude mice; details: 0.6 mg/mouse/day orally
Method: Seven days after subcutaneously injecting 1×10^6 Mahlavu liver hepatocellular carcinoma cell line into nude mice, PCH1152 (0.6 mg/mouse/day) began to be orally administered to the mice. After continuously administrating the drug orally for 45 days, the mice were sacrificed and their subcutaneous tumor were taken and analyzed.

[11] = test system: Antimycin A-induced ROS in LX-2 cells; assay: Removal of Antimycin A-induced ROS, DHE fluorescence; type: cell-based; details: 2.5 μM PCH1152, 24 hours
Excerpt: ROS was examined by DHE fluorescence, and the difference between each group was compared by Tukey's Multiple Comparison Test.

[12] = test system: Hepatitis B virus-induced ROS in Huh-7 cells; assay: Removal of HBV-induced ROS, DHE fluorescence; type: cell-based, human; details: Huh-7 transfected with pGEM C12, 5 μM PCH1152, 10 μM NAC
Method: To examine the effect of PCH1152, NAC or the combination thereof on removing HBV-induced ROS, the Huh-7 cells were remained untreated, or treated with 5 μM PCH1152, 10 μM NAC or 5 μM PCH 1152 plus 10 μM NAC. The ROS was examined by DHE fluorescence, and the difference between each group was compared by Tukey's Multiple Comparison Test.

[13] = test system: liver tumor in Hepatitis B virus (HBV) transgenic mouse; type: in vivo
Method: To examine the incidence rate of mouse liver tumor under long-term PCH1152 administration, PCH1152 was added into the drinking water of the mice when the mice were three-month-old, and the drinking water was replaced every 7 to 14 days. The termination of the experiment was set at 19 months, and the blood of the mice started to be collected every 2 to 3 months when the mice were 9-month-old, and the ALT values of the serum were measured. When the ALT of the serum were higher than 150 U/L twice in a row, the mice were sacrificed and the developments of the liver tumors thereof were observed.

[14] = type: physicochemical; details: after 16 days
[15] = test system: hepatic lipid accumulation and fibrosis in HBV transgenic mouse liver; assay: Oil Red and Sirius Red staining of liver tissue; type: in vivo; details: treated mice without liver hepatocellular carcinoma vs control group
[16] = test system: P62 and LC3B in HBV transgenic mouse liver tissue; assay: Autophagy markers in liver tissue, western blot; type: in vivo
Method: The liver tissues of the mice with or without liver hepatocellular carcinoma in the example 7 were analyzed by western blot (FIG. 8A), and quantitative analysis was performed via Image J software (FIG. 8B). P62 protein accumulated in the cells when the autophagy was forbidden, and it was degraded when the autophagy started-up. Therefore, P62 protein may be a biomarker of autophagy. […] Moreover, LC3B protein is the subunit of the microtubule-related protein, which has different protein isomers. After the autophagy being started, LC3B I isomer will be transformed into LC3B II isomer. […] The results above indicate that PCH1152 may enhance autophagy, i.e. may inhibit abnormal “anti-autophagy” effect, thereby preventing the development of liver hepatocellular carcinoma. **p<0.01; ***p<0.001; unpaired t-test.

[17] = test system: liver hepatocellular carcinoma cell line with Nexavar drug resistance; assay: Protein expression and apoptosis in drug-resistant cell line; type: cell-based
Excerpt: WT: wild-type liver hepatocellular carcinoma cell line. R: Nexavar-drug resistance-liver hepatocellular carcinoma cell line.
After treating liver hepatocellular carcinoma cell line with Nexavar drug resistance by PCH1130 or PCH1152, the expressions of molecules such as USP22, ABCC1, ABCC2 and Twist in liver hepatocellular carcinoma may be decreased, and the expressions of cleaved Caspase-8 and PARP may be increased, which induced the apoptosis of liver hepatocellular carcinoma cells.

[18] = Safety test, median lethal dose (LD50), intravenous injection; type: in vivo; details: in vivo, mouse
Method: (§2) The mouse xenograft model of liver hepatocellular carcinoma was administered with different concentrations of PCH1152 or P1130 via intravenous injection, and the median lethal dose (LD50) was calculated by the number of death and dosage.

[19] = test system: mouse xenograft model of liver hepatocellular carcinoma; assay: as above; type: in vivo
Method: as §2

[20] = long-term treatment in drinking water

Oc1ccc(CCN=C=S)cc1 [PCH1152]
GI50 ([1]; Homo sapiens, SNU-449, read-out: GI50, SNU-449 liver hepatocellular carcinoma cell line): 890 nM | increase of the ability of inhibiting the growth of the liver hepatocellular carcinoma cell line ([1]; compared to natural isothiocyanate compounds BITC or PEITC): 12 times | GI50 [2]: 1540 nM | expression levels of cleaved caspase 8 and cleaved PARP [3]: significantly increased | expressions of ABCC2, Twist and Mcl-1 [4]: inhibition | expressions of ABCC2, Twist and Mcl-1 [5]: inhibition | cell viability of liver hepatocellular carcinoma cell line ([6]; MTS assay, SNU-449): substantially decreased | selectivity between liver hepatocellular carcinoma cell and normal liver cell ([6]; SNU-449 vs THLE-2, MTS assay): better cell growth inhibition selectivity | effect on cell viability of human normal liver cell line [7]: not significant | apoptosis of liver hepatocellular carcinoma cell line [8]: promote apoptosis | expressions of ABCC2, Mcl-1 and Twist [8]: inhibit the expressions | apoptosis promotion and inhibition of ABCC2, Mcl-1, Twist in human normal liver cell line [9]: no such effect | death of mice during the experiment ([10]; 45 days): No mouse dead | effect on daily food intake ([10]; 45 days): did not have any significant effect | effect on mouse weight ([10]; 45 days): did not have any significant effect | value of ALT in the mouse ([10]; 45 days): decrease | subcutaneous tumor volume ([10]; 45 days, vs control group): significantly smaller | expressions of ABCC1, USP22 and Mcl-1 in subcutaneous tumor ([10]; western blot): significant lower | Antimycin A-induced ROS increasement [11]: significantly reduce | HBV-induced ROS increasement [12]: significantly reduce | reduction of the incidence rate of liver tumor ([13]; compared to control group): more than 30% | age at which serum ALT increased to over 150 U/L in 50% of the mice ([13]; control group 19.5-month old): 21 month old | volume of the liver tumor ([13]; long-term treatment): significantly decrease | weight of the liver tumor ([13]; long-term treatment): significantly decrease | impact on daily food intake [13, 20]: did not have any significant impact | impact on daily water intake [13, 20]: did not have any significant impact | impact on weight [13, 20]: did not have any significant impact | structural stability in the drinking water of the mice [14]: higher than 98% | region of the lipid accumulation in liver tissue ([15]; Oil Red): reduced significantly | region of fibrosis in liver tissue ([15]; Sirius Red): reduced significantly | effect on autophagy ([16]; liver tissue): significantly enhance autophagy | P62 protein in liver tissue (ratio of P62 and Hsc70) ([16]; treated mouse without carcinoma vs mouse developing carcinoma, western blot): significantly lower | ratio of LC3B II and LC3B I ([16]; vs control group, western blot): higher | effect on drug resistance in liver hepatocellular carcinoma [17]: reversing the drug resistance | expressions of USP22, ABCC1, ABCC2 and Twist [17]: decreased | expressions of cleaved Caspase-8 and PARP [17]: increased | LD50 [18]: 30 to 100 mg/kg | toxicity relative to existing anticancer drug, e.g. Taxotere [19]: comparable
